Assays:
[1] = Fluid (supercritical or subcritical phases), coriolis meter
[2] = xn = mol fraction of the nth substance listed; conditions: Fluid (supercritical or subcritical phases), coriolis meter

O=C=O [carbon dioxide]
[1]
Conditions	mass density [kg/m3]
291.3 K, 6100 kPa	817
291.5 K, 7100 kPa	834
291.7 K, 8100 kPa	849
291.9 K, 9200 kPa	861
292 K, 10200 kPa	872
292.1 K, 15200 kPa	916
292.1 K, 20200 kPa	948
292.1 K, 25300 kPa	975
292.1 K, 30100 kPa	997

COC [dimethyl ether]
[1]
Conditions	mass density [kg/m3]
288.5 K, 4100 kPa	684
288.6 K, 5100 kPa	686
288.8 K, 6100 kPa	688
289 K, 7200 kPa	690
289.1 K, 8200 kPa	691
289.1 K, 9200 kPa	693
289.3 K, 10000 kPa	694
289.3 K, 15000 kPa	703
289.3 K, 20000 kPa	711
289.4 K, 25000 kPa	718
289.5 K, 30000 kPa	725

COC [dimethyl ether] + O=C=O
[2]
Conditions	mass density [kg/m3]
288.5 K, 4100 kPa, x1 = 1	684
288.6 K, 5100 kPa, x1 = 1	686
288.8 K, 6100 kPa, x1 = 1	688
289 K, 7200 kPa, x1 = 1	690
289.1 K, 8200 kPa, x1 = 1	691
289.1 K, 9200 kPa, x1 = 1	693
289.3 K, 10000 kPa, x1 = 1	694
289.3 K, 15000 kPa, x1 = 1	703
289.3 K, 20000 kPa, x1 = 1	711
289.4 K, 25000 kPa, x1 = 1	718
289.5 K, 30000 kPa, x1 = 1	725
290.2 K, 4100 kPa, x1 = 0.251	806
290.7 K, 30100 kPa, x1 = 0.251	908
291.8 K, 25200 kPa, x1 = 0.251	892
291.9 K, 10100 kPa, x1 = 0.251	834
291.9 K, 15200 kPa, x1 = 0.251	857
291.9 K, 20200 kPa, x1 = 0.251	875
292 K, 8100 kPa, x1 = 0.251	824
292 K, 9200 kPa, x1 = 0.251	829
292.1 K, 6100 kPa, x1 = 0.251	811
292.1 K, 7100 kPa, x1 = 0.251	817
292.2 K, 5100 kPa, x1 = 0.251	805
292.5 K, 4000 kPa, x1 = 0.458	769
292.5 K, 5200 kPa, x1 = 0.458	773
292.6 K, 6100 kPa, x1 = 0.458	776
292.7 K, 7100 kPa, x1 = 0.458	780
292.8 K, 8200 kPa, x1 = 0.458	783
293 K, 9200 kPa, x1 = 0.458	786
293.1 K, 10200 kPa, x1 = 0.458	789
293.2 K, 15200 kPa, x1 = 0.458	804
293.4 K, 20200 kPa, x1 = 0.458	817
293.5 K, 25300 kPa, x1 = 0.458	830
293.7 K, 29300 kPa, x1 = 0.458	839
293.7 K, 30000 kPa, x1 = 0.458	840

O=C=O [carbon dioxide] + COC
[2], x2 = 0
Conditions	mass density [kg/m3]
291.3 K, 6100 kPa	817
291.5 K, 7100 kPa	834
291.7 K, 8100 kPa	849
291.9 K, 9200 kPa	861
292 K, 10200 kPa	872
292.1 K, 15200 kPa	916
292.1 K, 20200 kPa	948
292.1 K, 25300 kPa	975
292.1 K, 30100 kPa	997
